The values below come from patent US9452997B2, “Piperidine and piperazine derivatives as autotaxin inhibitors” (Merck Patent GmbH, priority 2009, dated 2016).

Bounds are passed on as bounds.

One assay addresses T1, Recombinant autotaxin (Homo sapiens, UniProt Q13822).
T1 construct: made in house; host or cells: Hi5 insect cells (baculovirus)
The assay is described as follows: Autotaxin assay (Amplex Red, LPC substrate). The class given is biochemical. As to conditions: % of control at 1E−05 (compound concentration); uninhibited control = 100%. The protocol: Autotaxin activity is measured indirectly by means of Amplex Red Reagent. In this course, Amplex Red is measured as fluorogenic indicator for generated H2O2. Autotaxin converts substrate lysophosphatidylcholine (LPC) to phosphocholine and lysophosphatidylic acid (LPA). After the conversion phosphocholine is reacted with alkaline phosphatase to obtain inorganic phosphate and choline. During the next step choline is oxidized with choline oxidase to yield betaine, whereby H2O2 is generated. H2O2 reacts with Amplex Red Reagent in the presence of peroxidase (Horseradish peroxidase) in an 1:1 stochiometry and yields highly fluorescent resorufin. The generated fluorescence is measured in a reaction-dependent kinetic mode in order to enable subtraction of fluorescence signals of possible other fluorescent compounds that are not part of the reaction from total measured fluorescence.
1.5 μl of a standard solution or of the compounds of the invention are dissolved in 20 mM Hepes pH 7.2 with maximally 7.7% DMSO in individual concentrations. The resulting solution is pre-incubated together with 10 μl (16 ng) of highly purified recombinant autotaxin in a black 384-hole microtiter plate for 30 min at 22° C.
Thereafter, the reaction is started through the addition of 5 μL-a-lysophosphatidyl-choline (LPC), whereby the final concentration of LPC is 75 μM. The mixture is incubated for 90 min. at 37° C. After the incubation Amplex Red Reagent, peroxidase (Horseradish peroxidase) and choline oxidase are added. The fluorescence is immediately measured at a wavelength of 612 nm with an excitation wavelength of 485 nm in a “Tecan Ultra multimode” fluorescence reader. The activity of autotaxin is indirectly calculated via the amount of detected generated H2O2.
For IC50 analysis, ten serial 1:3 dilutions starting at 30 μM for each compound were run in duplicates.
IC50 values were calculated on normalized data. For normalization, control wells were added to each assay plate and the signal of uninhibited control wells was set to 100%, whereas the signal inhibited by 500 μM C14 LPA, (Avanti Polar Lipids, Cat#857120P) was set to 0%. Curves were fitted and IC50 values calculated by the following model using proprietory analysis software: Y=Bottom+(100−Bottom)/(1+10^((Log IC50−X)*HillSlope)) Where X is the logarithm of concentration. Y is the response; Y starts at Bottom and goes to Top with a sigmoid shape. Material
Microtiter plate: PS-Microplate, 384-hole, small volume, black Corning, Cat#3677
Protein: Recombinant autotaxin (baculoviral Hi5 expression)
Substrate: L-a-lysophosphatidyl choline (chicken egg); Avanti Polar Lipids #830071P
Standard: C14 LPA, Avanti Polar Lipids, Cat#857120P
Detection Reagent: Amplex Red Reagent; Invitrogen #A12222; dissolved in 1.923 ml of DMSO peroxidase Type VI-A (horseradish), Sigma #P6782; dissolved in 7.45 ml of test buffer, Choline Oxidase; Sigma #C5896; dissolved in 2.47 ml test buffer
Detection Reagent Mix: 1:100 dilution of Amplex Red Regent in test buffer
Test buffer: 200 mM Tris-HCl, Merck, Cat #1.08219, pH 7.9; 0.1% BSA, lipid free, Roche Cat#775835
Regarding `O=C(Nc1ccc2[nH]nnc2c1)C1CC(=O)N(C2CCN(C(=O)OCC3CCCO3)CC2)C1` (stereo not drawn) [Compound 27, 4-[4-(1H-Benzotriazol-5-ylcarbamoyl)-2-oxo-pyrrolidin-1-yl]-piperidine-1-carboxylic acid tetrahydro-furan-2-ylmethyl ester], the “% CTRL (1E−05)” value stood at 83%.

The assay is the same for the next values; noted with them: recombinant autotaxin, LPC substrate, Amplex Red detection; values given as upper bounds.
One may read the IC50 as the midpoint of a concentration-inhibition curve. Turning to `O=C(CCc1ccccc1O)N1CCC(C2CCN(C(=O)c3ccccc3-c3cccc(C(F)(F)F)c3)CC2)CC1` [Compound 1, 3-(2-Hydroxy-phenyl)-1-[1′-(3′-trifluoromethyl-biphenyl-2-carbonyl)-[4,4′]bipiperidinyl-1-yl]-propan-1-one], the IC50 was under 1000 nM. On the same count and under the same terms, under `O=C(Nc1ccc2[nH]nnc2c1)C1CC(=O)N(C2CCN(C(=O)OCc3ccc(Cl)cc3)CC2)C1` (stereo not drawn) [Compound 2, 4-[4-(1H-Benzotriazol-5-ylcarbamoyl)-2-oxo-pyrrolidin-1-yl]-piperidine-1-carboxylic acid 4-chloro-benzyl ester] stands under 1000 nM; under `O=C(Nc1ccc2[nH]nnc2c1)C1CC(=O)N(C2CCN(C(=O)CCc3ccc(C(F)(F)F)cc3)CC2)C1` (stereo not drawn) [Compound 3, 5-Oxo-1-{1-[3-(4-trifluoromethyl-phenyl)-propionyl]-piperidin-4-yl}-pyrrolidine-3-carboxylic acid (1H-benzotriazol-5-yl)-amide], under 1000 nM. Still for that read-out and setting: the result for `O=C(Nc1ccc2[nH]nnc2c1)C1CC(=O)N(C2CCN(C(=O)OCc3cc(Cl)cc(Cl)c3)CC2)C1` (stereo not drawn) [Compound 4, 4-[4-(1H-Benzotriazol-5-ylcarbamoyl)-2-oxo-pyrrolidin-1-yl]-piperidine-1-carboxylic acid 3,5-dichloro-benzyl ester] reads under 1000 nM; that for `O=C(Nc1ccc2[nH]c(=O)oc2c1)c1cncc(N2CCN(C(=O)OCc3ccc(Cl)cc3)CC2)c1` [Compound 5, 4-[5-(2-Oxo-2,3-dihydro-benzooxazol-6-ylcarbamoyl)-pyridin-3-yl]-piperazine-1-carboxylic acid 4-chloro-benzyl ester], under 10000 nM; that for `O=C(Nc1ccc2[nH]nnc2c1)c1cncc(N2CCN(C(=O)OCc3ccc(Cl)cc3)CC2)c1` [Compound 6, 4-[5-(1H-Benzotriazol-5-ylcarbamoyl)-pyridin-3-yl]-piperazine-1-carboxylic acid 4-chloro-benzyl ester], under 30000 nM. On the same count and under the same terms, under `O=C(NC1CCN(C2CCN(C(=O)OCc3ccc(Cl)cc3)CC2)C1)c1ccc2[nH]nnc2c1` (stereo not drawn) [Compound 7, 4-{3-[(1H-Benzotriazole-5-carbonyl)-amino]-pyrrolidin-1-yl}-piperidine-1-carboxylic acid 4-chloro-benzyl ester] stands under 10000 nM; under `O=C(NC1CCN(C2CCN(C(=O)OCc3cc(Cl)cc(Cl)c3)CC2)C1)c1ccc2[nH]nnc2c1` (stereo not drawn) [Compound 9, 4-{3-[(1H-Benzotriazole-5-carbonyl)-amino]-pyrrolidin-1-yl}-piperidine-1-carboxylic acid 3,5-dichloro-benzyl ester], under 1000 nM. As to `O=C(Nc1ccc2[nH]nnc2c1)c1cccc(N2CCN(C(=O)OCc3ccc(Cl)cc3)CC2)c1` [Compound 10, 4-[3-(1H-Benzotriazol-5-ylcarbamoyl)-phenyl]-piperazine-1-carboxylic acid 4-chloro-benzyl ester], the IC50 is under 30000 nM. On the same count and under the same terms, the result for `Cc1ccc(-c2ccccc2C(=O)N2CCC(C3CCN(C(=O)c4ccc5[nH]nnc5c4)CC3)CC2)cc1` [Compound 11, [1′-(1H-Benzotriazole-5-carbonyl)-[4,4′]bipiperidinyl-1-yl]-(4′-methyl-biphenyl-2-yl)-methanone] reads under 1000 nM; that for `O=C(OCc1cc(Cl)cc(Cl)c1)N1CCC(C2CCN(C(=O)c3ccc4[nH]nnc4c3)CC2)CC1` [Compound 12, 1′-(1H-Benzotriazole-5-carbonyl)-[4,4′]bipiperidinyl-1-carboxylic acid 3,5-dichloro-benzyl ester], under 1000 nM. Same read-out and setting: the result for `Cc1ccc(-c2cccc(C(=O)N3CCC(C4CCN(C(=O)c5ccc6[nH]nnc6c5)CC4)CC3)c2)cc1` [Compound 13, [1′-(1H-Benzotriazole-5-carbonyl)-[4,4′]bipiperidinyl-1-yl]-(4′-methyl-biphenyl-3-yl)-methanone] reads under 10000 nM. On the same count and under the same terms, under `O=C(Nc1ccc2[nH]c(=O)oc2c1)C1CC(=O)N(C2CCN(C(=O)OCc3cc(Cl)cc(Cl)c3)CC2)C1` (stereo not drawn) [Compound 15, 4-[2-Oxo-4-(2-oxo-2,3-dihydro-benzooxazol-6-ylcarbamoyl)-pyrrolidin-1-yl]-piperidine-1-carboxylic acid 3,5-dichloro-benzyl ester] stands under 1000 nM. Regarding `O=C(Nc1ccc2[nH]c(=O)oc2c1)C1CC(=O)N(C2CCN(C(=O)OCc3ccc(Cl)cc3)CC2)C1` (stereo not drawn) [Compound 16, 4-[2-Oxo-4-(2-oxo-2,3-dihydro-benzooxazol-6-ylcarbamoyl)-pyrrolidin-1-yl]-piperidine-1-carboxylic acid 4-chloro-benzyl ester], the IC50 was under 10000 nM. The same measure, in the same setting: under `O=C(NCCc1ccccn1)C1CC(=O)N(C2CCN(C(=O)OCc3cc(Cl)cc(Cl)c3)CC2)C1` (stereo not drawn) [Compound 17, 4-[2-Oxo-4-(2-pyridin-2-yl-ethylcarbamoyl)-pyrrolidin-1-yl]-piperidine-1-carboxylic acid 3,5-dichloro-benzyl ester] stands under 10000 nM; under `O=C(OCc1cc(Cl)cc(Cl)c1)N1CCN(C2CCN(C(=O)c3ccc4[nH]nnc4c3)CC2)CC1` [Compound 19, 4-[1-(1H-Benzotriazole-5-carbonyl)-piperidin-4-yl]-piperazine-1-carboxylic acid 3,5-dichloro-benzyl ester], under 1000 nM; under `O=C(OCc1cc(Cl)cc(Cl)c1)N1CCC(N2CCN(C(=O)c3ccc4[nH]nnc4c3)CC2)CC1` [Compound 20, 4-[4-(1H-Benzotriazole-5-carbonyl)-piperazin-1-yl]-piperidine-1-carboxylic acid 3,5-dichloro-benzyl ester], under 1000 nM.

As to `O=C(CCc1ccccc1O)N1CCC(N2CCN(C(=O)c3ccccc3-c3cccc(C(F)(F)F)c3)CC2)CC1` [Compound 21, 3-(2-Hydroxy-phenyl)-1-{4-[4-(3′-trifluoromethyl-biphenyl-2-carbonyl)-piperazin-1-yl]-piperidin-1-yl}-propan-1-one], the IC50 was under 1000 nM. Same read-out and setting: under `O=C(CCc1ccc(C(F)(F)F)cc1)N1CCC(C2CCN(C(=O)c3ccc4[nH]nnc4c3)CC2)CC1` [Compound 22, 1-[1′-(1H-Benzotriazole-5-carbonyl)-[4,4′]bipiperidinyl-1-yl]-3-(4-trifluoromethyl-phenyl)-propan-1-one] stands under 1000 nM. The same measure, in the same setting: under `O=C(Cc1ccc(Cl)cc1)N1CCC(C2CCN(C(=O)c3ccc4[nH]nnc4c3)CC2)CC1` [Compound 23, 1-[1′-(1H-Benzotriazole-5-carbonyl)-[4,4′]bipiperidinyl-1-yl]-2-(4-chloro-phenyl)-ethanone] stands under 30000 nM; under `Cc1nc(-c2ccc(C(F)(F)F)cc2)sc1C(=O)N1CCC(N2CC(C(=O)Nc3ccc4[nH]nnc4c3)CC2=O)CC1` (stereo not drawn) [Compound 24, 1-{1-[4-Methyl-2-(4-trifluoromethyl-phenyl)-thiazole-5-carbonyl]-piperidin-4-yl}-5-oxo-pyrrolidine-3-carboxylic acid (1H-benzotriazol-5-yl)-amide], under 10000 nM; under `O=C(OCc1cc(Cl)cc(Cl)c1)N1CCC(N2CCN(C(=O)c3ccc4[nH]c(=O)oc4c3)CC2)CC1` [Compound 25, 4-[4-(2-Oxo-2,3-dihydro-benzooxazole-6-carbonyl)-piperazin-1-yl]-piperidine-1-carboxylic acid 3,5-dichloro-benzyl ester], under 1000 nM. On the same count and under the same terms, the result for `O=C(NCCc1ccncc1)C1CC(=O)N(C2CCN(C(=O)OCc3cc(Cl)cc(Cl)c3)CC2)C1` (stereo not drawn) [Compound 28, 4-[2-Oxo-4-(2-pyridin-4-yl-ethylcarbamoyl)-pyrrolidin-1-yl]-piperidine-1-carboxylic acid 3,5-dichloro-benzyl ester] reads under 10000 nM.
